One compound from article PMC11393638 (Regulatory toxicology and pharmacology : RTP, 2023) can be followed below.

The subject of this data set is TA1535. The conditions noted are these: for BMD50L / BMD50U: CES 0.5.
[1] abbreviates: 10% hamster liver S9, preincubation 30 min.
[2] abbreviates: 10% hamster liver S9, preincubation 60 min.
Where [3] appears, read: 10% rat liver S9, preincubation 30 min.
Where [4] appears, read: 30% hamster liver S9, preincubation 30 min.
Setting [5] is: 30% hamster liver S9, preincubation 60 min.

Molecules are shown by their SMILES. Like-named read-outs stand apart in the source and are kept apart here.

With `CC(C)N(CC(O)COc1cccc2ccccc12)N=O` (stereo not shown) [NNP, N-nitroso propranolol], the “Mutagenic response in the Ames test (overall)” value (0–200 μg/plate, S9 activation required) is “positive mutagenic responses”. Besides, the BMD50L is reported as 0.9 μg/plate under setting [1]; 2.1 μg/plate under setting [2]; 36.1 μg/plate under setting [3]; “Negative” (10% rat liver S9, preincubation 60 min); 2.3 μg/plate under setting [4]; 2.5 μg/plate under setting [5]. Also, the BMD50L result reads like this: (30% rat liver S9, preincubation 30 min) “Negative”; (30% rat liver S9, preincubation 60 min) “Negative”; (without S9, preincubation 30 min) “Negative”; (without S9, preincubation 60 min) “Negative”. In addition, the BMD50U is 3.4 μg/plate under setting [1]; 6.5 μg/plate under setting [2]; 108.0 μg/plate under setting [3]; 7.7 μg/plate under setting [4]; 7.1 μg/plate under setting [5].
